Data reported in patent publication US6716851B2, “Substituted 2-aryl-4-arylaminopyrimidines and analogs as activators or caspases and inducers of apoptosis and the use thereof” (Cytovia, Inc., priority 2000, dated 2004).
Structures can show the parent of a compound that is named as a salt.

Assays:
ZR-75-1 cells = experiment: Caspase cascade activation (N-(Ac-DEVD)-N'-ethoxycarbonyl-R110 fluorogenic substrate) in ZR-75-1 cells; type: cell-based, Human; conditions: ZR-75-1, 48 h incubation; for EC50: Homo sapiens, caspase activation potency; for ZR Ratio 48 hr: caspase activity: ratio of net RFU of test compound to control
Protocol: (§1) Human breast cancer cell lines T-47D and ZR-75-1 were grown according to media component mixtures designated by American Type Culture Collection +10% FCS (Invitrogen Corporation, Life Technologies division), in a 5% CO2-95% humidity incubator at 37° C. T-47D and ZR-75-1 cells were maintained at a cell density between 50 and 80% confluency at a cell density of 0.1 to 0.6×10^6 cells/ml. Cells were harvested at 600× g and resuspended at 0.65×10^6 cells/ml into appropriate media +10% FCS. An aliquot of […] of cells was added to a well of a […] microtiter plate containing 2.5 μl of a 10% DMSO in RPMI-1640 media solution containing 0.16 to 100 μM of 4-(3-methoxyanilino)-2-(2-pyridinyl)-6-(trifluoromethyl)pyrimidine or other test compound (0.016 to 10 μM final). An aliquot of 22.5 μl of cells was added to a well of a 384-well microtiter plate containing 2.5 μl of a 10% DMSO in RPMI-1640 media solution without test compound as the control sample. The samples were mixed by agitation and then incubated at 37° C. for 48 h in a 5% CO2-95% humidity incubator. After incubation, the samples were removed from the incubator and 25 μl of a solution containing 14 μM of N-(Ac-DEVD)-N′-ethoxycarbonyl-R110 fluorogenic substrate (Cytovia, Inc.; WO99/18856), 20% sucrose (Sigma), 20 mM DTT (Sigma), 200 mM NaCl (Sigma), 40 mM Na PIPES buffer pH 7.2 (Sigma), and 500 μg/ml lysolecithin (Calbiochem) was added. The samples were mixed by agitation and incubated at room temperature. Using a fluorescent plate reader (Model SpectraMax Gemini, Molecular Devices), an initial reading (T=0) was made approximately 1-2 min after addition of the substrate solution, employing excitation at 485 nm and emission at 530 nm, to determine the background fluorescence of the control sample. After the 3 h incubation, the samples were read for fluorescence as above (T=3 h).
(§2) The Relative Fluorescence Unit values (RFU) were used to calculate the sample readings as follows:
(§3) RFU(T=3h)−Control RFU(T=0)=Net RFU(T=3h)
(§4) The activity of caspase cascade activation was determined by the ratio of the net RFU value for 4-(3-methoxyanilino)-2-(2-pyridinyl)-6-(trifluoromethyl)pyrimidine or other test compound to that of control samples. The EC50 (nM) was determined by a sigmoidal dose-response calculation (Prism 2.0, GraphPad Software Inc.).

T-47D cells = experiment: Caspase cascade activation (N-(Ac-DEVD)-N'-ethoxycarbonyl-R110 fluorogenic substrate) in T-47D cells; type: cell-based, Human; conditions: 48 h incubation; for EC50: Homo sapiens, T47D, caspase activation potency, read-out: T47 EC50; for T47 Ratio 48 hr: caspase activity: ratio of net RFU of test compound to control
Protocol: as §1, §2, §3, §4

| Compound | EC50 (ZR-75-1 cells) | EC50 (T-47D cells) | ZR Ratio 48 hr (ZR-75-1 cells) | T47 Ratio 48 hr (T-47D cells) |
| --- | --- | --- | --- | --- |
| Cc1cc(Nc2c(C)cccc2C)nc(-c2ccccn2)n1 [Example 108, 4-(2,6-Dimethylanilino)-6-methyl-2-(2-pyridinyl)pyrimidine] | 4370 nM | > 5000 nM | 2.4 | 0.9 |
| COc1cccc(Nc2cc(-c3ccccn3)nc(-c3ccccn3)n2)c1 [Example 109, 4-(3-Methoxyanilino)-2,6-di(2-pyridinyl)pyrimidine] | 2590 nM | 1500 nM | 3.6 | 3.9 |
| COc1ccc(OC)c(Nc2cc(-c3ccccn3)nc(-c3ccccn3)n2)c1 [Example 110, 4-(2,5-Dimethoxyanilino)-2,6-di(2-pyridinyl)pyrimidine] | 648 nM | 576 nM | 11.6 | 8.9 |
| COc1ccc(C)c(Nc2cc(-c3ccccn3)nc(-c3ccccn3)n2)c1 [Example 111, 4-(5-Methoxy-2-methylanilino)-2,6-di(2-pyridinyl)pyrimidine] | 2570 nM | 1420 nM | 3.9 | 4.0 |
| COc1ccc(C)cc1Nc1cc(-c2ccccn2)nc(-c2ccccn2)n1.Cl [Example 112, 4-(2-Methoxy-5-methylanilino)-2,6-di(2-pyridinyl)pyrimidine] | 2370 nM | 1860 nM | 2.9 | 3.3 |
| COc1ccc(Cl)c(Nc2cc(-c3ccccn3)nc(-c3ccccn3)n2)c1.Cl [Example 113, 4-(2-Chloro-5-methoxyanilino)-2,6-di(2-pyridinyl)pyrimidine] | 2730 nM | 1430 nM | 4.1 | 4.4 |

Now from value to molecule, other results behind:

| EC50 (ZR-75-1 cells) | EC50 (T-47D cells) | Compound | ZR Ratio 48 hr (ZR-75-1 cells) | T47 Ratio 48 hr (T-47D cells) |
| --- | --- | --- | --- | --- |
| 2800 nM | 2540 nM | Cc1ccc(C)c(Nc2cc(-c3ccccn3)nc(-c3ccccn3)n2)c1 [Example 114, 4-(2,5-Dimethylanilino)-2,6-di(2-pyridinyl)pyrimidine] | 3.7 | 3.6 |
| 59 nM | 112 nM | Cc1ccc(C)c(Nc2cc(C(F)(F)F)nc(-c3ccncc3)n2)c1 [Example 115, 4-(2,5-Dimethylanilino)-2-(4-pyridinyl)-6-(trifluoromethyl)pyrimidine hydrochloride] | 11.6 | 14.2 |
| 73 nM | 71 nM | COc1ccc(C)cc1Nc1cc(C(F)(F)F)nc(-c2ccncc2)n1 [Example 116, 4-(2-Methoxy-5-methylanilino)-2-(4-pyridinyl)-6-(trifluoromethyl)pyrimidine] | 8.8 | 13.7 |
| 276 nM | 138 nM | Cc1ccc(O)cc1Nc1cc(C(F)(F)F)nc(-c2cccnc2)n1 [Example 117, 4-(5-Hydroxy-2-methylanilino)-2-(3-pyridinyl)-6-(trifluoromethyl)pyrimidine] | 6.3 | 11.3 |
| 31 nM | 34 nM | Cc1ccc(O)cc1Nc1cc(C(F)(F)F)nc(-c2ccncc2)n1 [Example 118, 4-(5-Hydroxy-2-methylanilino)-2-(4-pyridinyl)-6-(trifluoromethyl)pyrimidine] | 9.9 | 8.8 |
| 2400 nM | 2690 nM | Cc1ccc(C#N)c(Nc2cc(C(F)(F)F)nc(-c3cccnc3)n2)c1 [Example 120, 4-(2-Cyano-5-methylanilino)-2-(3-pyridinyl)-6-(trifluoromethyl)pyrimidine] | 4.5 | 8.2 |
| 380 nM | 480 nM | Cc1cc(C)cc(Nc2cc(C(F)(F)F)nc(-c3cccnc3)n2)c1 [Example 121, 4-(3,5-Dimethylanilino)-2-(3-pyridinyl)-6-(trifluoromethyl)pyrimidine] | 9.9 | 11.2 |
